From the supplement of paper PMC10307832 come the findings set out here.

Common to all, as to assay: relative viability (nuclei count vs DMSO), 5 days (fraction); higher = more cells survive
Compound in assay [1]: C1COCCN1C2=NC(=NC3=C2OC4=C3C=CC=N4)C5=CC(=CC=C5)NC(=O)C6=CN=C(C=C6)N + C[C@@H](Oc1cc(-c2cnn(C3CCNCC3)c2)cnc1N)c1c(Cl)ccc(F)c1Cl [Crizotinib] (partner 1 µM)
Summed up: (§1)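 Relative viability is defined as nuclei in treated wells over nuclei in vehicle wells. Duplicate plates were run and medians reported. Lung cancer cell lines in 1536-well plates were dosed by pin tool one day after seeding, with one drug or with a fixed anchor-drug dose plus five library-drug doses (not always all listed) in √10 steps, and nuclei were counted after 5 days.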

Compound in the assay “SGI-1776 + Lapatinib”: CN1CCC(CNc2ccc3ncc(-c4cccc(OC(F)(F)F)c4)n3n2)CC1 [SGI-1776] + CS(=O)(=O)CCNCc1ccc(-c2ccc3ncnc(Nc4ccc(OCc5cccc(F)c5)c(Cl)c4)c3c2)o1 [Lapatinib] (partner 2 µM)
Summed up: as §1

Compound in the assay “Entinostat + Linsitinib”: Nc1ccccc1NC(=O)c1ccc(CNC(=O)OCc2cccnc2)cc1 [Entinostat] + C[C@]1(O)C[C@@H](c2nc(-c3ccc4ccc(-c5ccccc5)nc4c3)c3c(N)nccn32)C1 [Linsitinib] (partner 1 µM)
Put shortly:
as §1

Compound in the assay “Entinostat + Tozasertib”: Nc1ccccc1NC(=O)c1ccc(CNC(=O)OCc2cccnc2)cc1 [Entinostat] + Cc1cc(Nc2cc(N3CCN(C)CC3)nc(Sc3ccc(NC(=O)C4CC4)cc3)n2)n[nH]1 [Tozasertib] (partner 0.1 µM)
Summed up: as §1

On to PC-3 [JPC-3], for which the relative viability in assay [1] (first compound 0.02 µM) came to 0.961; in assay [1] (first compound 0.06325 µM), 1.02; in assay [1] (first compound 0.2 µM), 1.02; in assay [1] (first compound 0.6325 µM), 1.04; in assay [1] (first compound 2 µM), 0.64; with SGI-1776 + Lapatinib (first compound 0.08 µM), 0.441. Moreover, the relative viability with SGI-1776 + Lapatinib (first compound 0.8 µM) came out at 0.466; with SGI-1776 + Lapatinib (first compound 2.53 µM) it was 0.478; with SGI-1776 + Lapatinib (first compound 8 µM), 0.371; with Entinostat + Linsitinib (first compound 0.02 µM), 0.956; in the assay with Entinostat + Linsitinib (first compound 0.06325 µM) it was 0.907; in the assay with Entinostat + Linsitinib (first compound 0.2 µM) it was 0.728. For the same cell line, the relative viability with Entinostat + Linsitinib (first compound 0.6325 µM) was found to be 0.716; in the assay with Entinostat + Linsitinib (first compound 2 µM) it was 0.467; in the assay with Entinostat + Tozasertib (first compound 0.02 µM) it was 0.898; with Entinostat + Tozasertib (first compound 0.06325 µM), 0.786; with Entinostat + Tozasertib (first compound 0.2 µM), 0.685; in the assay with Entinostat + Tozasertib (first compound 0.6325 µM), 0.59. The relative viability with Entinostat + Tozasertib (first compound 2 µM) is 0.326.

As to PC-14, the relative viability in assay [1] (first compound 0.02 µM) was determined as 1.01; in assay [1] (first compound 0.06325 µM) it was 1.07; in assay [1] (first compound 0.2 µM), 0.865; in assay [1] (first compound 0.6325 µM), 0.784; in assay [1] (first compound 2 µM), 0.396; in the assay with SGI-1776 + Lapatinib (first compound 0.08 µM), 0.337. The relative viability with SGI-1776 + Lapatinib (first compound 0.8 µM) turned out to be 0.31; in the assay with SGI-1776 + Lapatinib (first compound 2.53 µM) it was 0.261; with SGI-1776 + Lapatinib (first compound 8 µM) it was 0.209; with Entinostat + Linsitinib (first compound 0.02 µM), 1.03; with Entinostat + Linsitinib (first compound 0.06325 µM) it was 0.947; with Entinostat + Linsitinib (first compound 0.2 µM), 1.03. Further, the relative viability is 0.364 with Entinostat + Linsitinib (first compound 0.6325 µM); 0.16 with Entinostat + Linsitinib (first compound 2 µM); 0.56 with Entinostat + Tozasertib (first compound 0.02 µM); 0.629 with Entinostat + Tozasertib (first compound 0.06325 µM); 0.325 with Entinostat + Tozasertib (first compound 0.2 µM); 0.104 in the assay with Entinostat + Tozasertib (first compound 0.6325 µM). In addition, the relative viability with Entinostat + Tozasertib (first compound 2 µM) is 0.0609.

Turning to RERF-LC-KJ, the relative viability amounted to 1.02 in assay [1] (first compound 0.02 µM); 0.913 in assay [1] (first compound 0.06325 µM); 0.798 in assay [1] (first compound 0.2 µM); 0.794 in assay [1] (first compound 0.6325 µM); 0.748 in assay [1] (first compound 2 µM); 0.867 with SGI-1776 + Lapatinib (first compound 0.08 µM). For the same cell line, the relative viability with SGI-1776 + Lapatinib (first compound 0.8 µM) amounted to 0.868; with SGI-1776 + Lapatinib (first compound 2.53 µM), 0.728; with SGI-1776 + Lapatinib (first compound 8 µM), 0.795; with Entinostat + Linsitinib (first compound 0.02 µM), 0.912; with Entinostat + Linsitinib (first compound 0.06325 µM), 0.766; with Entinostat + Linsitinib (first compound 0.2 µM), 0.885. Further, the relative viability was 0.536 with Entinostat + Linsitinib (first compound 0.6325 µM); 0.239 in the assay with Entinostat + Linsitinib (first compound 2 µM); 0.417 in the assay with Entinostat + Tozasertib (first compound 0.02 µM); 0.4 with Entinostat + Tozasertib (first compound 0.06325 µM); 0.349 with Entinostat + Tozasertib (first compound 0.2 µM); 0.215 with Entinostat + Tozasertib (first compound 0.6325 µM). The relative viability with Entinostat + Tozasertib (first compound 2 µM) is 0.198.

On to SK-LU-1, for which the relative viability was determined as 0.947 in assay [1] (first compound 0.02 µM); 0.992 in assay [1] (first compound 0.06325 µM); 0.915 in assay [1] (first compound 0.2 µM); 1.1 in assay [1] (first compound 0.6325 µM); 0.502 in assay [1] (first compound 2 µM); 0.861 with SGI-1776 + Lapatinib (first compound 0.08 µM). Moreover, the relative viability in the assay with SGI-1776 + Lapatinib (first compound 0.8 µM) stood at 1.03; in the assay with SGI-1776 + Lapatinib (first compound 2.53 µM) it was 0.782; with SGI-1776 + Lapatinib (first compound 8 µM) it was 0.667; with Entinostat + Linsitinib (first compound 0.02 µM), 1.1; with Entinostat + Linsitinib (first compound 0.06325 µM) it was 1.04; with Entinostat + Linsitinib (first compound 0.2 µM), 0.909. The relative viability with Entinostat + Linsitinib (first compound 0.6325 µM) is 0.657; with Entinostat + Linsitinib (first compound 2 µM), 0.516; with Entinostat + Tozasertib (first compound 0.02 µM), 0.335; in the assay with Entinostat + Tozasertib (first compound 0.06325 µM) it was 0.337; in the assay with Entinostat + Tozasertib (first compound 0.2 µM) it was 0.278; in the assay with Entinostat + Tozasertib (first compound 0.6325 µM), 0.182. Moreover, the relative viability with Entinostat + Tozasertib (first compound 2 µM) was 0.169.

As to SK-MES-1, the relative viability came to 1.09 in assay [1] (first compound 0.02 µM); 1.11 in assay [1] (first compound 0.06325 µM); 0.975 in assay [1] (first compound 0.2 µM); 0.884 in assay [1] (first compound 0.6325 µM); 0.7 in assay [1] (first compound 2 µM); 0.494 in the assay with SGI-1776 + Lapatinib (first compound 0.08 µM). Besides, the relative viability in the assay with SGI-1776 + Lapatinib (first compound 0.8 µM) was found to be 0.447; in the assay with SGI-1776 + Lapatinib (first compound 2.53 µM) it was 0.449; with SGI-1776 + Lapatinib (first compound 8 µM), 0.404; with Entinostat + Linsitinib (first compound 0.02 µM), 1.11; in the assay with Entinostat + Linsitinib (first compound 0.06325 µM) it was 1.05; with Entinostat + Linsitinib (first compound 0.2 µM), 1.23. The relative viability with Entinostat + Linsitinib (first compound 0.6325 µM) is 0.983; with Entinostat + Linsitinib (first compound 2 µM) it was 0.69; with Entinostat + Tozasertib (first compound 0.02 µM), 0.849; with Entinostat + Tozasertib (first compound 0.06325 µM), 0.826; with Entinostat + Tozasertib (first compound 0.2 µM) it was 0.925; with Entinostat + Tozasertib (first compound 0.6325 µM) it was 0.673. Moreover, in the assay with Entinostat + Tozasertib (first compound 2 µM), the relative viability is 0.324.

Consider SW 1573, for which the relative viability is 0.89 in assay [1] (first compound 0.02 µM); 0.812 in assay [1] (first compound 0.06325 µM); 0.721 in assay [1] (first compound 0.2 µM); 0.743 in assay [1] (first compound 0.6325 µM); 0.659 in assay [1] (first compound 2 µM); 1.29 in the assay with SGI-1776 + Lapatinib (first compound 0.08 µM). Further, the relative viability in the assay with SGI-1776 + Lapatinib (first compound 0.8 µM) was 1.09; with SGI-1776 + Lapatinib (first compound 2.53 µM), 1.15; in the assay with SGI-1776 + Lapatinib (first compound 8 µM) it was 1.06; with Entinostat + Linsitinib (first compound 0.02 µM), 0.721; with Entinostat + Linsitinib (first compound 0.06325 µM), 0.93; with Entinostat + Linsitinib (first compound 0.2 µM), 0.811. Besides, the relative viability in the assay with Entinostat + Linsitinib (first compound 0.6325 µM) was 0.884; with Entinostat + Linsitinib (first compound 2 µM), 0.609; in the assay with Entinostat + Tozasertib (first compound 0.02 µM), 0.237; in the assay with Entinostat + Tozasertib (first compound 0.06325 µM), 0.186; with Entinostat + Tozasertib (first compound 0.2 µM) it was 0.242; in the assay with Entinostat + Tozasertib (first compound 0.6325 µM) it was 0.179. Moreover, the relative viability with Entinostat + Tozasertib (first compound 2 µM) was 0.164.
